From ChEMBL document CHEMBL1201862, “PubChem BioAssay data set” (2004) come the findings set out here.

Test systems include SR; OVCAR-4; SK-MEL-5; HL-60; HCT-15; HOP-62; SNB-19; MDA-MB-231; Malme-3M; PC-3; NCI-H522; RPMI-8226; SN12C; OVCAR-3; ACHN; CCRF-CEM; HT-29; TK-10; RXF 393; SK-MEL-2.
Holding throughout (assay): NCI tumour cell line growth inhibition, 48 h

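In this assay, cells in 96-well plates receive the compound at five concentrations for 48 hours. Endpoints are linearly interpolated between the surrounding concentrations. GI50 is the concentration that inhibits growth by half.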 Calls of active or inactive are those of the source. Cut-off read from the data, not from the text of the source: active = GI50 up to about 1.1 µM and inactive = higher.

Consider `Cc1n[nH]c(=O)n1Nc1ccccc1`, for which the GI50 in the assay on SR is > 100 µM (inactive); in the assay on OVCAR-4, > 100 µM (inactive); in the assay with SK-MEL-5, > 100 µM (inactive); with HL-60, > 100 µM (inactive); in the assay on HCT-15 it was greater than 100 µM; in the assay on HOP-62, > 100 µM (inactive). Besides, the GI50 in the assay on SNB-19, with MDA-MB-231, in the assay on Malme-3M, in the assay on PC-3, in the assay on NCI-H522 and with RPMI-8226 was > 100 µM (inactive) throughout. Also, the GI50 in the assay with SN12C, in the assay on OVCAR-3, in the assay on ACHN, with CCRF-CEM and in the assay on HT-29 was > 100 µM (inactive) throughout.

In the case of `O=C(NC(Cl)(C(F)(F)F)C(F)(F)F)c1ccc(F)cc1`, the GI50 in the assay on SR was > 100 µM (inactive); in the assay on TK-10, > 100 µM (inactive); in the assay with OVCAR-4 it was > 100 µM (inactive); with SK-MEL-5 it was > 100 µM (inactive); with HL-60, > 100 µM (inactive); in the assay with HCT-15 it was greater than 100 µM. Also, the GI50 in the assay on HOP-62, in the assay with RXF 393, in the assay on SNB-19, with MDA-MB-231, in the assay on Malme-3M and with SK-MEL-2 was > 100 µM (inactive) throughout. Also, the GI50 with PC-3, in the assay with RPMI-8226, in the assay with SN12C, with OVCAR-3, in the assay on ACHN and in the assay with CCRF-CEM was > 100 µM (inactive) throughout. The GI50 in the assay with HT-29 is > 100 µM (inactive).

For `COC(=O)Cc1c(-c2c(CC(=O)OC)c3ccccc3n2C2OC(COC3OC(COC(C)=O)C(OC(C)=O)C(OC(C)=O)C3OC(C)=O)C(O)C(O)C2O)[nH]c2ccccc12` (centres undefined), the GI50 in the assay on SR was > 100 µM (inactive); in the assay on TK-10, 71 µM (inactive); in the assay with SK-MEL-5, > 100 µM (inactive); in the assay on HL-60, > 100 µM (inactive); with HCT-15 it was greater than 100 µM; in the assay with HOP-62 it was 23 µM (inactive). For the same compound, the GI50 in the assay on SNB-19 was 22.8 µM (inactive); in the assay on MDA-MB-231 it was 29.2 µM (inactive); in the assay on SK-MEL-2 it was 24.4 µM (inactive); with PC-3, > 100 µM (inactive); in the assay on RPMI-8226, > 100 µM (inactive); with SN12C, > 100 µM (inactive). The GI50 in the assay with OVCAR-3, in the assay on ACHN, in the assay on CCRF-CEM and in the assay with HT-29 was > 100 µM (inactive) throughout.

For the compound `CN(C)C12C=CC=CC3=C(c4ccccc4)C(c4ccccc4)=C(c4ccccc4)C31c1ccccc1C2` (centres undefined), the GI50 was > 100 µM (inactive) in the assay with SR; > 100 µM (inactive) in the assay with TK-10; > 100 µM (inactive) with OVCAR-4; > 100 µM (inactive) in the assay on SK-MEL-5; > 100 µM (inactive) in the assay with HL-60; greater than 100 µM in the assay on HCT-15. The GI50 with HOP-62, in the assay on SNB-19, in the assay with MDA-MB-231, in the assay with PC-3, in the assay with NCI-H522 and with RPMI-8226 was > 100 µM (inactive) throughout. The GI50 in the assay on SN12C, in the assay on ACHN, with CCRF-CEM and in the assay with HT-29 was > 100 µM (inactive) in each case.

As to `COc1ccc(/C=N\N(C)Cc2cccc3ccsc23)cc1`, the GI50 in the assay on SR is 90.2 µM (inactive); in the assay with TK-10 it was > 100 µM (inactive); in the assay on OVCAR-4 it was 92.5 µM (inactive); in the assay on SK-MEL-5, 28.6 µM (inactive); in the assay on HL-60, > 100 µM (inactive); with HCT-15 it was 92.9 µM. In addition, the GI50 in the assay with HOP-62, in the assay with RXF 393, in the assay with SNB-19, in the assay with MDA-MB-231, with Malme-3M and in the assay with PC-3 was > 100 µM (inactive) each time. The GI50 in the assay with NCI-H522 is > 100 µM (inactive); with SN12C it was > 100 µM (inactive); with OVCAR-3, 33.6 µM (inactive); in the assay with ACHN, > 100 µM (inactive); with CCRF-CEM, > 100 µM (inactive); with HT-29 it was 49.2 µM (inactive).

As for `COc1ccc(S(=O)(=O)Nc2ccc(-c3csc(N4C(=O)/C(=C/c5cccs5)N=C4c4ccccc4)n3)cc2)cc1Cl`, the GI50 is 28.6 µM (inactive) in the assay on SR; 56.1 µM (inactive) with TK-10; 40.2 µM (inactive) in the assay on OVCAR-4; 40.8 µM (inactive) in the assay on SK-MEL-5; 24.5 µM (inactive) with HL-60; 24.9 µM with HCT-15. Also, the GI50 with HOP-62 is 4.08 µM (inactive); in the assay with RXF 393, 29.5 µM (inactive); with SNB-19, 49.7 µM (inactive); with MDA-MB-231, 32.4 µM (inactive); in the assay on Malme-3M, 32.3 µM (inactive); with SK-MEL-2 it was 40.4 µM (inactive). Besides, the GI50 with PC-3 was 34.8 µM (inactive); in the assay on NCI-H522, 22.3 µM (inactive); with SN12C, 66.2 µM (inactive); with OVCAR-3, 43.6 µM (inactive); in the assay with ACHN, 35.4 µM (inactive); with HT-29, > 100 µM (inactive).

As for `CCOC(=O)C(C)(C(=O)OCC)/C(Cl)=C\Cl`, the GI50 in the assay on SR, in the assay with TK-10, in the assay with OVCAR-4, with SK-MEL-5, in the assay with HL-60 and with HOP-62 was > 100 µM (inactive) in each case. In addition, the GI50 with RXF 393, with SNB-19, in the assay on MDA-MB-231, in the assay with Malme-3M, in the assay with PC-3 and in the assay on NCI-H522 was > 100 µM (inactive) in each case. In addition, the GI50 in the assay with RPMI-8226, in the assay on SN12C, in the assay with OVCAR-3, in the assay on ACHN, with CCRF-CEM and with HT-29 was > 100 µM (inactive) throughout.

For the compound `Cn1c(C(O)C2(c3cccnc3)SCCCS2)cc2ccccc21` (centres undefined), the GI50 with SR is 55.5 µM (inactive); in the assay with TK-10, > 100 µM (inactive); in the assay on OVCAR-4, 67.8 µM (inactive); with SK-MEL-5, 37.6 µM (inactive); in the assay with HL-60, 50.5 µM (inactive); in the assay with HCT-15, greater than 100 µM. In addition, the GI50 in the assay on HOP-62 was > 100 µM (inactive); in the assay with SNB-19, > 100 µM (inactive); in the assay with MDA-MB-231, > 100 µM (inactive); in the assay on Malme-3M, > 100 µM (inactive); with SK-MEL-2, > 100 µM (inactive); with PC-3, 66.1 µM (inactive). Besides, the GI50 with RPMI-8226 is 38.5 µM (inactive); with SN12C, > 100 µM (inactive); in the assay on OVCAR-3, 36.6 µM (inactive); in the assay with ACHN it was > 100 µM (inactive); in the assay with CCRF-CEM, 84.7 µM (inactive); in the assay on HT-29, > 100 µM (inactive).

Consider `C=C1CCCCCCCCCCC1[S+]([O-])c1ccccc1` (centres undefined), for which the GI50 is 25.2 µM (inactive) with SR; 54.5 µM (inactive) with OVCAR-4; 29.5 µM (inactive) in the assay on SK-MEL-5; 19.1 µM (inactive) with HL-60; 41.7 µM with HCT-15; 60.8 µM (inactive) in the assay on HOP-62. Also, the GI50 was 26.5 µM (inactive) in the assay on RXF 393; 56.6 µM (inactive) in the assay on SNB-19; 24.5 µM (inactive) in the assay on MDA-MB-231; > 100 µM (inactive) in the assay with Malme-3M; > 100 µM (inactive) in the assay on SK-MEL-2; 31.5 µM (inactive) in the assay on PC-3. The GI50 is 20.8 µM (inactive) in the assay on RPMI-8226; 23.2 µM (inactive) in the assay with SN12C; 34.1 µM (inactive) in the assay with OVCAR-3; 29.8 µM (inactive) in the assay with ACHN; 40.3 µM (inactive) in the assay with HT-29.

For `COc1ccc(CNC2=N/C(=C\c3ccccc3Cl)C(=O)N2C)cc1`, the GI50 in the assay with SR is 25.2 µM (inactive); with TK-10, 37.7 µM (inactive); in the assay on OVCAR-4 it was 23.9 µM (inactive); with SK-MEL-5, 19.9 µM (inactive); in the assay on HL-60 it was 25.8 µM (inactive); in the assay with HCT-15 it was 28.4 µM. Besides, the GI50 in the assay with HOP-62 was 47.8 µM (inactive); with RXF 393 it was 31.8 µM (inactive); in the assay on SNB-19, 38.6 µM (inactive); with MDA-MB-231, 26.4 µM (inactive); in the assay on Malme-3M, 33 µM (inactive); in the assay with SK-MEL-2 it was 19.3 µM (inactive). Besides, the GI50 in the assay on PC-3 is 28.1 µM (inactive); in the assay with NCI-H522, 20.5 µM (inactive); in the assay on SN12C it was 19.6 µM (inactive); in the assay with OVCAR-3, 22.8 µM (inactive); with ACHN it was 29.6 µM (inactive); in the assay with HT-29, 22.9 µM (inactive).

With `C[C@]12CC[C@H]3[C@@H](CC=C4C[C@@H](O)CC[C@@]43C)[C@@H]1C[C@H](N1CCOCC1)[C@@H]2O`, the GI50 with TK-10 was > 100 µM (inactive); in the assay on OVCAR-4, > 100 µM (inactive); in the assay with SK-MEL-5, 77.3 µM (inactive); with HL-60, 48.5 µM (inactive); with HCT-15, greater than 100 µM; in the assay on HOP-62 it was > 100 µM (inactive). For the same compound, the GI50 in the assay with RXF 393 is 52.4 µM (inactive); with SNB-19, > 100 µM (inactive); in the assay with MDA-MB-231 it was 54.3 µM (inactive); in the assay on Malme-3M, > 100 µM (inactive); in the assay on SK-MEL-2 it was > 100 µM (inactive); in the assay on PC-3, > 100 µM (inactive). For the same compound, the GI50 with NCI-H522, in the assay on RPMI-8226, in the assay with SN12C, with OVCAR-3, in the assay on ACHN and in the assay on CCRF-CEM was > 100 µM (inactive) each time. Besides, the GI50 in the assay on HT-29 was 6.34 µM (inactive).
